Experiments:
Experiment in all cases: relative viability (nuclei count vs DMSO), 5 days (fraction); higher = more cells survive
AZ628 + Luminespib = compound: CC1=C(C=C(C=C1)NC(=O)C2=CC(=CC=C2)C(C)(C)C#N)NC3=CC4=C(C=C3)N=CN(C4=O)C [AZ628] + CCNC(=O)c1noc(-c2cc(C(C)C)c(O)cc2O)c1-c1ccc(CN2CCOCC2)cc1 [Luminespib] (partner 0.01 µM)
Outline: (§1)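 Values are medians from duplicate plates. Each reflects relative viability, defined as the nuclei count of treated wells over that of vehicle wells. Lung cancer cell lines in 1536-well plates were pin-tool dosed one day after seeding with one drug alone or with a fixed anchor-drug dose plus five library-drug doses (not always all listed) in √10 steps, then fixed, stained and imaged at 4× after 5 days.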

[1] = compound: C[As](C)SC[C@H](NC(=O)CC[C@H](N)C(=O)O)C(=O)NCC(=O)O [Darinaparsin] + CCNC(=O)c1noc(-c2cc(C(C)C)c(O)cc2O)c1-c1ccc(CN2CCOCC2)cc1 [Luminespib] (partner 0.01 µM)
Outline: as §1

[2] = compound: C[As](C)SC[C@H](NC(=O)CC[C@H](N)C(=O)O)C(=O)NCC(=O)O [Darinaparsin] + C[C@@H](Oc1cc(-c2cnn(C3CCNCC3)c2)cnc1N)c1c(Cl)ccc(F)c1Cl [Crizotinib] (partner 1 µM)
Outline: as §1

[3] = compound: C[As](C)SC[C@H](NC(=O)CC[C@H](N)C(=O)O)C(=O)NCC(=O)O [Darinaparsin] + N=C(N)NC(=N)NCCc1ccccc1 [Phenformin] (partner 250 µM)
Outline: as §1

Cell Line | relative viability (AZ628 + Luminespib; first compound 0.08 µM) | relative viability (AZ628 + Luminespib; first compound 0.253 µM) | relative viability (AZ628 + Luminespib; first compound 0.8 µM) | relative viability (AZ628 + Luminespib; first compound 2.53 µM) | relative viability (AZ628 + Luminespib; first compound 8 µM) | relative viability ([1]; first compound 0.08 µM) | relative viability ([1]; first compound 0.8 µM) | relative viability ([1]; first compound 2.53 µM) | relative viability ([1]; first compound 8 µM) | relative viability ([2]; first compound 0.08 µM) | relative viability ([2]; first compound 0.8 µM) | relative viability ([2]; first compound 2.53 µM) | relative viability ([2]; first compound 8 µM) | relative viability ([3]; first compound 0.08 µM) | relative viability ([3]; first compound 0.8 µM) | relative viability ([3]; first compound 2.53 µM) | relative viability ([3]; first compound 8 µM)
NCI-H596 | 0.931 | 1.11 | 1.02 | 0.984 | 0.829 | 1.14 | 1.12 | 0.951 | 0.966 | 1.08 | 0.999 | 0.765 | 0.982 | 0.891 | 0.737 | 0.677 | 0.745
NCI-H2126 | 1 | 0.902 | 0.968 | 0.933 | 0.97 | 0.984 | 1.02 | 0.722 | 0.931 | 1.14 | 1.01 | 0.93 | 1.12 | 0.521 | 0.511 | 0.524 | 0.556
EMC-BAC-2 | 1.22 | 1.03 | 1.16 | 1.07 | 1.12 | 0.763 | 1.15 | 1.16 | 1.49 | 0.812 | 0.772 | 0.676 | 0.801 | 0.559 | 0.505 | 0.514 | 0.559
H3255 | 1.03 | 0.891 | 0.929 | 1 | 0.556 | 0.88 | 0.94 | 0.807 | 0.95 | 1.14 | 0.773 | 0.789 | 0.895 | 0.381 | 0.384 | 0.363 | 0.332
NCI-H838 | 0.305 | 0.318 | 0.336 | 0.386 | 0.246 | 0.29 | 0.265 | 0.284 | 0.283 | 0.996 | 0.803 | 0.776 | 0.976 | 0.596 | 0.508 | 0.486 | 0.638
NCI-H2009 | 0.967 | 0.957 | 0.894 | 0.966 | 0.38 | 1.18 | 1.01 | 1.01 | 1.07 | 1.09 | 0.991 | 0.953 | 1.02 | 0.511 | 0.52 | 0.475 | 0.55
HCC-15 | 0.262 | 0.304 | 0.478 | 0.361 | 0.282 | 0.461 | 0.253 | 0.326 | 0.467 | 0.931 | 0.743 | 0.784 | 1.06 | 0.642 | 0.481 | 0.353 | 0.61
CAL-12T | 0.591 | 0.371 | 0.376 | 0.465 | 0.466 | 0.182 | 0.429 | 0.429 | 0.761 | 0.902 | 0.752 | 0.391 | 0.707 | 0.657 | 0.534 | 0.478 | 0.605
COR-L 105 | 0.828 | 0.591 | 0.761 | 0.86 | 0.635 | 0.867 | 0.775 | 0.712 | 0.682 | 0.745 | 0.687 |  | 0.866 | 0.505 | 0.486 | 0.433 | 0.451
BEN | 0.51 | 0.251 | 0.485 | 0.938 | 0.221 | 0.409 | 0.366 | 0.511 | 0.522 | 0.956 | 1.01 | 0.741 | 1.17 | 0.263 | 0.268 | 0.263 | 0.265
NCI-H520 | 0.21 | 0.219 | 0.209 | 0.219 | 0.203 | 0.219 | 0.21 | 0.222 | 0.192 | 0.873 | 0.759 | 0.515 | 0.924 | 0.669 | 0.481 | 0.453 | 0.625
ChaGo-K-1 | 0.546 | 0.642 | 0.456 | 0.504 | 0.461 | 0.692 | 0.502 | 0.55 | 0.786 | 1.38 | 1.14 | 0.924 | 1.1 | 0.494 | 0.535 | 0.515 | 0.575
NCI-H2405 | 0.366 | 0.425 | 0.411 | 0.365 | 0.355 | 0.822 | 0.611 | 0.61 | 0.689 | 0.911 | 0.787 | 0.755 | 0.873 | 0.407 | 0.377 | 0.415 | 0.405
NCI-H2087 | 0.132 | 0.155 | 0.159 | 0.193 | 0.152 | 0.159 | 0.162 | 0.204 | 0.184 | 1.04 | 0.911 | 0.889 | 1.11 | 0.553 | 0.451 | 0.467 | 0.608
NCI-H460 | 0.0338 | 0.033 | 0.0403 | 0.0274 | 0.0264 | 0.0325 | 0.033 | 0.0441 | 0.0347 |  | 0.91 | 0.607 | 1.56 | 0.553 | 0.557 | 0.506 | 0.884
LCLC-103H | 0.971 | 0.879 | 0.974 | 0.94 | 0.965 | 1.14 | 0.876 | 0.882 | 1.22 | 1.12 | 1.04 | 0.979 | 1.03 | 0.36 | 0.365 | 0.318 | 0.349
NCI-H1650 | 0.206 | 0.18 | 0.201 | 0.203 | 0.206 | 0.238 | 0.214 | 0.187 | 0.173 | 1.14 | 0.98 | 0.795 | 1.17 | 0.472 | 0.416 | 0.494 | 0.395
NCI-H441 | 0.33 | 0.342 | 0.345 | 0.469 | 0.241 | 0.488 | 0.321 | 0.364 | 0.245 | 0.956 | 0.729 | 0.676 | 0.701 | 1.13 | 0.821 | 0.597 | 0.88

From the supplement of paper PMC10307832
